ChEMBL document CHEMBL5674860, “Optimized Dual-Glo Assay to identify co-culture-induced drug vulnerabilities in 3D CRC models” (2024)

What was measured:
Format in all cases: functional, Homo sapiens
Design in all cases: dose or concentration left out as unconfirmed
Colon cancer organoid [1] = assay: Optimized Dual-Glo assay to identify co-culture induced drug vulnerabilities using donated chemical probes and chemogenomics kinase set in O20 CRC organoid and F20 CAF mono and co-culture. […] Cell viability is reported both mono and co-culture models.
Colon cancer organoid [2] = assay: Optimized Dual-Glo assay to identify co-culture induced drug vulnerabilities using donated chemical probes and chemogenomics kinase set in O06 CRC organoid and F06 CAF mono and co-culture. […] Cell viability is reported both mono and co-culture models.
Colon cancer organoid [3] = assay: Optimized Dual-Glo assay to identify co-culture induced drug vulnerabilities using donated chemical probes and chemogenomics kinase set in O14 CRC organoid and F14 CAF mono and co-culture. […] Cell viability is reported both mono and co-culture models.
[4] = Culture type Co-Culture, Transduced with Lucferase2-P2A-EGFP lentivirus
[5] = Culture type Co-Culture, Transduced with Renilla-dsRed lentivirus
[6] = Culture type Mono-Culture, Transduced with Lucferase2-P2A-EGFP lentivirus
[7] = Culture type Mono-Culture, Transduced with Renilla-dsRed lentivirus

| Compound | Cell Viability (Colon cancer organoid [1]; [4]) [%] | Cell Viability (Colon cancer organoid [1]; [5]) [%] | Cell Viability (Colon cancer organoid [1]; [6]) [%] | Cell Viability (Colon cancer organoid [1]; [7]) [%] | Cell Viability (Colon cancer organoid [2]; [4]) [%] | Cell Viability (Colon cancer organoid [2]; [5]) [%] | Cell Viability (Colon cancer organoid [2]; [6]) [%] | Cell Viability (Colon cancer organoid [2]; [7]) [%] | Cell Viability (Colon cancer organoid [3]; [4]) [%] | Cell Viability (Colon cancer organoid [3]; [5]) [%] | Cell Viability (Colon cancer organoid [3]; [6]) [%] | Cell Viability (Colon cancer organoid [3]; [7]) [%] |
| --- | --- | --- | --- | --- | --- | --- | --- | --- | --- | --- | --- | --- |
| O=C1[C@H](Cc2ccc(O)cc2)N2C(=O)CCN(C(=O)NCc3ccccc3)[C@H]2CN1Cc1cccc2ccccc12 | 89.6614 | 144.616 | 131.376 | 33.7268 | 79.2211 | 124.216 | 100.059 | 61.7438 | 20.45 | 145.967 | 17.2238 | 77.2237 |
| Cc1cc(C)cc([C@@H]2c3cc(C)ccc3NC(=O)CN2C(=O)c2ccc(Br)s2)c1 | 135.921 | 541.943 | 109.076 | 515.86 | 107.168 | 464.523 | 138.593 | 545.831 | 88.8372 | 581.73 | 126.733 | 467.801 |
| Cc1cnc(-c2cc(Cl)ccc2F)cc1-n1c(=O)n(CC(N)=O)c2cnccc21 [TP-008] | 64.1613 | 114.054 | 79.9392 | 106.384 | 13.7504 | 213.932 | 47.0575 | 82.299 | 97.8203 | 116.603 | 124.72 | 98.4627 |
| CCOc1cc(N2CCC(O)CC2)ccc1Nc1ncc2c(n1)N(C)c1ccccc1C(=O)N2C | 81.7751 | 117.331 | 65.2469 | 115.42 | 85.6087 | 128.987 | 73.5863 | 165.88 | 76.0009 | 186.577 | 84.1713 | 122.992 |
| Cn1c(C2(NC(=O)c3ccc4c(C5CCCC5)c(-c5ncc(Br)cn5)n(C)c4c3)CCC2)nc2ccc(/C=C/C(=O)O)cc21 [DELEOBUVIR] | 79.9036 | 130.288 | 108.218 | 110.732 | 116.632 | 84.3073 | 123.499 | 101.583 | 94.147 | 102.969 | 81.1663 | 89.5103 |
| Cc1c(Oc2ccc(F)cc2)c(OC(C)C)nn1-c1ccc(C2CC2)cn1 [IPP/CNRS-A019] | 91.1919 | 118.396 | 98.5803 | 101.782 | 92.46 | 90.9232 | 83.1676 | 103.472 | 97.1985 | 110.863 | 115.046 | 92.4816 |
| O[C@H]1CC[C@H](Nc2ncc3nc(Nc4c(F)cc(F)cc4F)n([C@H]4CCOC4)c3n2)CC1 [TANZISERTIB] | 129.23 | 97.8883 | 76.6269 | 101.702 | 96.802 | 109.826 | 106.51 | 114.573 | 101.857 | 126.192 | 105.608 | 109.828 |
| CC[C@@H]1C(=O)N(C)c2cnc(Nc3ccc(C(=O)NC4CCN(C)CC4)cc3OC)nc2N1C1CCCC1 [BI-2536] | 3.7112 | 168.723 | 5.1365 | 106.916 | 3.341 | 324.743 | 5.694 | 205.81 | 6.08 | 320.789 | 25.6478 | 192.03 |
| COc1ccc2c(O[C@@H]3C[C@H]4C(=O)N[C@]5(C(=O)O)CC5/C=C\CCCCC[C@H](NC(=O)OC5CCCC5)C(=O)N4C3)cc(-c3csc(NC(=O)C(C)C)n3)nc2c1C (stereo partly specified) [BI 1230] | 95.5192 | 162.279 | 102.506 | 120.15 | 113.549 | 148.301 | 94.169 | 100.65 | 105.071 | 113.929 | 106.581 | 104.774 |
| Cc1cc2c(cc1N1C(=O)c3cccc4c(CCCO)ccc(c34)C1=O)n(C)c(=O)n2C | 35.0091 | 231.762 | 20.745 | 97.4451 | 83.3962 | 164.269 | 66.8328 | 103.172 | 46.4165 | 127.225 | 64.4307 | 101.303 |
| COc1cc(N2CCC(O)CC2)ccc1Nc1cc(Nc2ccccc2S(=O)(=O)C(C)C)c2cc[nH]c2n1 | 108.471 | 84.332 | 70.9146 | 86.2422 | 85.241 | 81.2438 | 122.712 | 109.159 | 73.6565 | 103.778 | 68.2856 | 78.3072 |
| CC(C)(O)CNc1ncc(-c2ccnc(Nc3ccnc(Cl)c3)n2)c(CC2CC2)n1 | 67.7034 | 172.835 | 40.8339 | 186.893 | 30.6205 | 168.017 | 58.1247 | 187.59 | 100.5 | 183.934 | 107.577 | 192.643 |
| Cc1noc([C@H]2C[C@@H](c3ccc(C(F)(F)F)cc3)CN(C(=O)N3CCS(=O)(=O)C3)C2)n1 [BAY-448] | 115.252 | 84.5218 | 119.935 | 108.615 | 105.176 | 127.928 | 104.997 | 116.857 | 96.3881 | 112.512 | 127.621 | 97.5385 |
| Cc1nnc2c3ccccc3c(N[C@@H](C)[C@H](c3ccccc3)N(C)C)nn12 | 82.0862 | 127.368 | 95.9209 | 100.184 | 95.7989 | 115.114 | 100.296 | 129.772 | 89.8317 | 122.44 | 117.177 | 107.176 |
| C[C@@H](c1cccc(C#N)c1)n1cc(Cl)cc(C(N)=O)c1=N.Cl | 64.263 | 72.4154 | 105.334 | 111.16 | 92.5611 | 127.503 | 97.2998 | 98.9566 | 96.0836 | 104.787 | 81.7502 | 103.626 |
| COc1cc(-c2cn([C@H]3CCc4ccccc4N(CC(F)(F)F)C3=O)nn2)ccc1-n1ccc(C)n1 | 70.0794 | 119.033 | 80.8006 | 95.6811 | 93.4988 | 122.107 | 86.5665 | 106.482 | 109.774 | 96.1466 | 102.384 | 99.9901 |
| O=C1c2ccc(Nc3ccc(F)cc3F)cc2CCc2ccc(OC[C@H](O)CO)cc21 [Skepinone-L] | 88.3042 | 86.6611 | 113.922 | 95.9781 | 115.343 | 88.0925 | 155.18 | 90.6486 | 150.905 | 93.4936 | 165.429 | 90.897 |
| Cc1cc(C)cc([C@H]2c3cc(C)ccc3NC(=O)CN2C(=O)c2ccc(Br)s2)c1 | 134.503 | 98.7461 | 124.059 | 79.4319 | 94.0417 | 115.465 | 159.24 | 104.104 | 84.3524 | 110.086 | 124.101 | 91.0337 |
